Assay results: patent US20100069345A1, “Lanthanide-porphyrin complexes as anti-tumor agents” (priority 2005, published 2010)

Legend:
[1] = test system: human nasopharyngeal carcinoma cells (SUNE1); assay: MTT cell viability assay, SUNE1; assay type: cell-based
Excerpt: (§1) Human cervical epitheloid carcinoma cells (HeLa), human hepatocellular carcinoma cells (HepG2 and Hep3B), human breast cancer cells (MCF-7), human coloadenocarcinoma cells (HCT-8), and normal human lung fibroblast cells (CCD-19Lu) were purchased from American Type Culture Collection (ATCC) Rockville, Md., USA. The human hepatocellular cancinoma cells QGY-7703, and the multi-drug resistant cell line QGY-TR50 derived from QGY-7703, were generously provided by Prof. Yong Xie (The Hong Kong University of Science and Technology, Hong Kong PRC). QGY-TR50 cells were isolated and cultured as described (J. Zhou, S. C. Cheng, D. Luo, Y. Xie Biochem. Biophys. Res. Commun. 2001, 280, 1237-1242). Human nasopharyngeal carcinoma cells (SUNE1 and its cisplatin-resistant variant—CNE2) were derived from poorly differentiated NPC in Chinese patients and were generously provided by Dr. S. W. Tsao (The University of Hong Kong, Hong Kong PRC). Cell culture flasks and 96-well microtitre plates were from Nalge Nunc Int. Culture medium, other medium constituents and phosphate buffer saline (PBS) were obtained by Gibco BRL Rockville, Md., USA. Cell Proliferation kit I (MTT) was purchased from Roche. Mannheim, Germany.

[2] = test system: HeLa cells; assay: FACS cell cycle analysis with PI staining; assay type: cell-based, human; conditions: 2 μM
Description: Instrumentation. All absorption spectra were recorded on a Perkin-Elmer Lambda 900 and Perkin-Elmer Fusion α-FP. Positive ion FAB mass spectra were recorded on a Finnigan MAT95 mass spectrometer. ^1HNMR spectra were recorded on Brucker DPX-300 or DPX-400 NMR spectrometers. Flow cytometric analysis was performed with a Coulter EPICS flow cytometer (Coulter, Miami, Fla.) equipped with 480 long, 525 band and 625 long pass mirrors. Samples were excited by 15 mW air-cool argon convergent laser at 488 nm. Fluorescence signal were manipulated with Coulter Elite 4.0 software (Coulter) and were analyzed by Winlist 1.04 and Modfit 5011 software (verity Software House, Topsham, Me.).
Fluorescence-Activated Cell Sortings (FACS). Cells in different phases of the cell cycle can be differentiated by the DNA content, which can be distinguished by FACS after staining the cells with propidium iodide (PI). Resting cells are said to be in the G0 phase of the cell cycle. Once the cell is instructed to divide, it enters the active phase of the cell cycle, which is consisted of G1, S, G2 and M phase. Treatment of cancer cells with cytotoxic agents may induce cell cycle arrest at a particular phase of the cell cycle. Flow cytometry with PI staining was performed in HeLa cells treated with complex 1 (2 μM) for 0, 6 h, 12 h, 18 h, 24 h, 36 h and 48 h. […]

[3] = test system: human hepatocellular carcinoma cells (Hep3B); assay: MTT cell viability assay, Hep3B; assay type: cell-based; conditions: 37° C., 48 h, mean ± SD
Excerpt: as §1

[4] = test system: cisplatin-resistant variant (CNE2) of human nasopharyngeal carcinoma cells; assay: MTT cell viability assay, CNE2; assay type: cell-based
Excerpt: as §1

[5] = test system: HeLa cells; assay: Effect of 3-MA on 1-induced cytotoxicity (MTT); assay type: cell-based, human; conditions: 3-MA 10 mM 1 h then 1 for 24 h, P<0.001
Description: HeLa cells were pre-treated with 3-MA (10 mM) for 1 h, and then with 1 for 24 h as indicated. Cell viability was measured using MTT assay *, P<0.001. Effect of 3-MA on 1-induced cytotoxicity. Cells were seeded on 96-well microtitre plates (8×10^3 cells per well). After overnight incubation, the cells were pre-incubated with 3-methyladenine (3-MA, 10 mM) for 1 hour and then in the presence of 1 (DMSO<1%) for 24 h. Cell viability was measured by MTT assay as described before.

[6] = Stability by UV-visible in DMSO/Tris buffer; assay type: physicochemical; conditions: DMSO/Tris buffer solution (1:9), 24 h, room temperature; complex 1 3 μM, complex 2b 7 μM
Description: UV-visible experiments. The absorption spectra of 3 μM of complex 1 in DMSO/Tris buffer solution (1:9) were monitored for 24 h. […] The complex was monitored over 24 h at room temperature and about 23% decrease in the Soret band intensity was recorded without any significant spectral shift in both Soret and Q-bands (FIG. 5). The absorption spectra of 7 μM of complex 2b in DMSO/Tris buffer solution (1:9) were also monitored for 24 h.

[7] = test system: multi-drug resistant liver tumor cells (QGY-TR50); assay: Murine xenograft tumor model; assay type: in vivo, mouse; conditions: 10 mg/kg/day i.p. daily for 22 days, nude mice, vs control group
Description: The murine model for anti-tumor evaluation in vivo was the male BALB/c-nu/nu mouse originated from Charles River Laboratories, Inc. and the colony was maintained in the Laboratory Animal Unit, The University of Hong Kong. Mice were grafted in the left flank with QGY-TR50 cells subcutaneously. All of the experiments were carried out according to the guidelines of the Committee on the Use of Live Animals in Teaching and Research, The University of Hong Kong.
The anti-tumor effect of complex 1 was examined in the xenograft mice model. A complex 1 suspension was prepared by dissolving the complex in 1% EtOH and mixed with a solution containing 0.2% sodium carboxymethyl cellulose (Sigma) and 0.1% Tween 80 (Sigma) in PBS. A dose tolerance test was conducted to determine the appropriate dose ranges for complex 1. […] The dimensions of the tumors were measured twice weekly with calipers, and tumor volumes were estimated using two-dimensional measurements of length and width and calculated with the formula [l×(w)^2]×0.52 (l, length; w, width) according to described procedures (M. Guba, P. von Breitenbuch, M. Steinbauer, G. Koehl, S. Flegel, M. Hornung, C. J. Bruns, C. Zuelke, S. Farkas, M. Anthuber, K. W. Jauch, E. K. Geissler, Nat Med 2002, 8, 128-135). The weights of the mice were also recorded twice weekly throughout the course of treatment. […]

[8] = test system: normal human lung fibroblast cells (CCD-19Lu); assay: MTT cell viability assay, CCD-19Lu; assay type: cell-based
Excerpt: as §1

[9] = IC50 of cisplatin divided by IC50 of complex

In the case of [Yb2(OEP)2](μ-OH)2 [Complex 1], the “IC50 ratio cisplatin/complex, SUNE1” value [1, 9] is reported as 4.8, the IC50 ([1]; MTT, 37° C., 48 h, mean ± SD) is reported as 2.45 µM and the “change in proportion of cells in G0-G1, G2-M and S phase” value ([2]; 0-48 h, PI staining) is reported as “no observable change”. The “cells showing DNA fragmentation” value ([2]; 48 h) was “more than 60%”, the IC50 [3] was 0.78 ± 0.06 µM and the “IC50 ratio cisplatin/complex, CNE2” value [4, 9] was 17.2. The IC50 ([4]; MTT, 37° C., 48 h, mean ± SD) was 3.35 µM, the “effect of 3-MA pretreatment on viability of 1-treated cells” value [5] was “significantly increases cell viability” and the “decrease in Soret band intensity” value [6] was “about 23%”. For the same substance, the “inhibition of the tumor volume” value [7] was 40%, the “IC50 ratio cisplatin/complex, CCD-19Lu” value [8, 9] was 16.8 and the IC50 ([8]; MTT, 37° C., 48 h, mean ± SD) was 5.4 ± 6.8 µM.
